Assay results published in patent US12227522B2, “Synthesis of structural analogs of largazole and associated compounds” (COLORADO STATE UNIVERSITY RESEARCH FOUNDATION, priority 2020, dated 2025).

Experiments:
Assay type in all cases: biochemical
HDAC 1 = HDAC 1 (Homo sapiens, UniProt Q13547); test: in vitro HDAC inhibition, HDAC isoform 1; settings: Class 1, in vitro; read-out: HDAC inhibition as IC50, HDAC Isoform 1
HDAC 2 = HDAC 2 (Homo sapiens, UniProt Q92769); test: in vitro HDAC inhibition, HDAC isoform 2; settings: Class 1, in vitro; read-out: HDAC inhibition as IC50, HDAC Isoform 2
HDAC 2, sequence (Q92769 whole entry, canonical isoform): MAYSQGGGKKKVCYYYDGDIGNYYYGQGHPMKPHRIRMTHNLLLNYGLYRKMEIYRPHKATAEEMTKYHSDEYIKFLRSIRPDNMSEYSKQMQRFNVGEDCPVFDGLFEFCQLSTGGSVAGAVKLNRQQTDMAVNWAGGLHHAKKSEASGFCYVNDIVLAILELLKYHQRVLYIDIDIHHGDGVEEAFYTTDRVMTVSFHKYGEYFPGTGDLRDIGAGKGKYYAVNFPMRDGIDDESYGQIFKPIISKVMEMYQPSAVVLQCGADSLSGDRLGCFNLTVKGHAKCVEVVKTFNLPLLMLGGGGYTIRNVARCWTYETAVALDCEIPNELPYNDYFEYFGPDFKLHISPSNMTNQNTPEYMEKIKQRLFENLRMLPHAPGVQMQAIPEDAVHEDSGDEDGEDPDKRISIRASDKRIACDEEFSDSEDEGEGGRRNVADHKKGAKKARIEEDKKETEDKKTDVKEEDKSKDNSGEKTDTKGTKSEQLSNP

HDAC 3 = HDAC 3 (Homo sapiens, UniProt O15379); test: in vitro HDAC inhibition, HDAC isoform 3; settings: Class 1, in vitro; read-out: HDAC inhibition as IC50, HDAC Isoform 3
HDAC 3, sequence (O15379 whole entry, canonical isoform): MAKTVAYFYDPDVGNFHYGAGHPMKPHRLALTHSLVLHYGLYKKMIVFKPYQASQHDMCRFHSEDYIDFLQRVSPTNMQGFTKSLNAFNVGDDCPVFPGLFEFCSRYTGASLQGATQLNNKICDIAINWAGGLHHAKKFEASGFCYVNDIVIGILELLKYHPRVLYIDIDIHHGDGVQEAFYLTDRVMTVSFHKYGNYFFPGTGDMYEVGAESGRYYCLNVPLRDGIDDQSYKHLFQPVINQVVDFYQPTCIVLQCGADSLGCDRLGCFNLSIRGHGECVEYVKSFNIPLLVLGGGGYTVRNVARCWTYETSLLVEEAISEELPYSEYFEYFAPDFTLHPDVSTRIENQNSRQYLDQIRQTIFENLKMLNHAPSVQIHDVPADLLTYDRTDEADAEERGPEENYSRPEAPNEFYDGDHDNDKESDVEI
HDAC 3, sequence (Q9Y618 395-489 partner limits assumed): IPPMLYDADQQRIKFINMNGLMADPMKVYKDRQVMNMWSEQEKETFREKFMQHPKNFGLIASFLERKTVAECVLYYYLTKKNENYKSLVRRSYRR

HDAC 8 = molecular target: T1, HDAC 8 (Homo sapiens, UniProt Q9BY41); test: in vitro HDAC inhibition, HDAC isoform 8; settings: Class 1, in vitro; read-out: HDAC inhibition as IC50, HDAC Isoform 8
T1 sequence (Q9BY41 1-377): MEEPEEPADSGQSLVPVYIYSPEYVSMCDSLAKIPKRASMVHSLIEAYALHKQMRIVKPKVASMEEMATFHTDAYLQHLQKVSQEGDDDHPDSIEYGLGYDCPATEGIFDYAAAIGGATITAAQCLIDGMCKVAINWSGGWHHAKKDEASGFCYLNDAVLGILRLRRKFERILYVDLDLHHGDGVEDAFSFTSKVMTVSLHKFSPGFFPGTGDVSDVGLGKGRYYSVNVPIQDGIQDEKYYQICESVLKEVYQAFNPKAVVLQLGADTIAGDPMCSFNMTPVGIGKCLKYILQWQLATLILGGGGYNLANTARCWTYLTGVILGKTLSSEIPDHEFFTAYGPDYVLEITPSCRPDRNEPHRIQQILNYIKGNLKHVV

HDAC 4 = HDAC 4 (Homo sapiens, UniProt P56524); test: in vitro HDAC inhibition, HDAC isoform 4; settings: Class 2a, read-out: HDAC inhibition as IC50, HDAC Isoform 4
HDAC 4, sequence (P56524 whole entry, canonical isoform): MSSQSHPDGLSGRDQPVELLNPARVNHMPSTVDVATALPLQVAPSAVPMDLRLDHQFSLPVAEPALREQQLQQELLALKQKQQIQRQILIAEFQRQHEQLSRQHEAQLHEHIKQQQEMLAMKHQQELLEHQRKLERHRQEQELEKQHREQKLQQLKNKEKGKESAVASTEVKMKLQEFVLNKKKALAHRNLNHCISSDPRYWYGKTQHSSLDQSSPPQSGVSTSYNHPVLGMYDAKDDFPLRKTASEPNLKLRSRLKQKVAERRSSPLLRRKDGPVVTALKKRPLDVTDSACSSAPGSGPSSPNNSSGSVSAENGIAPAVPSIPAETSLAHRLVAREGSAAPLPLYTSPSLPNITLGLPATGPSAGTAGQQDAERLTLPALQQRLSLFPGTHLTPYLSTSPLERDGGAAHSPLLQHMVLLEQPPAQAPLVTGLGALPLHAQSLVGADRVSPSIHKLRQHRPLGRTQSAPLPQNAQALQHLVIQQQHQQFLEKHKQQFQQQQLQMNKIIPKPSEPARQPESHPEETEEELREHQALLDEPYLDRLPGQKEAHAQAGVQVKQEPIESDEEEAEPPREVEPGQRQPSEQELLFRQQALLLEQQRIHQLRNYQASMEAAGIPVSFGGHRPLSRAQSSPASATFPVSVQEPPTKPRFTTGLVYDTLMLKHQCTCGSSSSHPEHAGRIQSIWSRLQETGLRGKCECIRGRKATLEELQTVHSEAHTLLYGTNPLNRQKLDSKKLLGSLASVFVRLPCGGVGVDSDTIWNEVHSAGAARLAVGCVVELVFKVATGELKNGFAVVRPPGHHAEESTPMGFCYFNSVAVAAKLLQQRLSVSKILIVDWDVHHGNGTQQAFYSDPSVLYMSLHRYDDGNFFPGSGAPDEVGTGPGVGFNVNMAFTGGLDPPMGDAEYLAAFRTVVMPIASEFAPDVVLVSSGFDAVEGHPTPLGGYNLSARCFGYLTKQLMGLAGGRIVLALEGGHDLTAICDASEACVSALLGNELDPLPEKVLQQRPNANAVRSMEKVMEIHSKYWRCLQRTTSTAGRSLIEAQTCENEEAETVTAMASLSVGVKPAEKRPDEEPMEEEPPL

HDAC 5 = HDAC 5 (Homo sapiens, UniProt Q9UQL6); test: in vitro HDAC inhibition, HDAC isoform 5; settings: Class 2a, read-out: HDAC inhibition as IC50, HDAC Isoform 5
HDAC 5, sequence (Q9UQL6 whole entry, canonical isoform): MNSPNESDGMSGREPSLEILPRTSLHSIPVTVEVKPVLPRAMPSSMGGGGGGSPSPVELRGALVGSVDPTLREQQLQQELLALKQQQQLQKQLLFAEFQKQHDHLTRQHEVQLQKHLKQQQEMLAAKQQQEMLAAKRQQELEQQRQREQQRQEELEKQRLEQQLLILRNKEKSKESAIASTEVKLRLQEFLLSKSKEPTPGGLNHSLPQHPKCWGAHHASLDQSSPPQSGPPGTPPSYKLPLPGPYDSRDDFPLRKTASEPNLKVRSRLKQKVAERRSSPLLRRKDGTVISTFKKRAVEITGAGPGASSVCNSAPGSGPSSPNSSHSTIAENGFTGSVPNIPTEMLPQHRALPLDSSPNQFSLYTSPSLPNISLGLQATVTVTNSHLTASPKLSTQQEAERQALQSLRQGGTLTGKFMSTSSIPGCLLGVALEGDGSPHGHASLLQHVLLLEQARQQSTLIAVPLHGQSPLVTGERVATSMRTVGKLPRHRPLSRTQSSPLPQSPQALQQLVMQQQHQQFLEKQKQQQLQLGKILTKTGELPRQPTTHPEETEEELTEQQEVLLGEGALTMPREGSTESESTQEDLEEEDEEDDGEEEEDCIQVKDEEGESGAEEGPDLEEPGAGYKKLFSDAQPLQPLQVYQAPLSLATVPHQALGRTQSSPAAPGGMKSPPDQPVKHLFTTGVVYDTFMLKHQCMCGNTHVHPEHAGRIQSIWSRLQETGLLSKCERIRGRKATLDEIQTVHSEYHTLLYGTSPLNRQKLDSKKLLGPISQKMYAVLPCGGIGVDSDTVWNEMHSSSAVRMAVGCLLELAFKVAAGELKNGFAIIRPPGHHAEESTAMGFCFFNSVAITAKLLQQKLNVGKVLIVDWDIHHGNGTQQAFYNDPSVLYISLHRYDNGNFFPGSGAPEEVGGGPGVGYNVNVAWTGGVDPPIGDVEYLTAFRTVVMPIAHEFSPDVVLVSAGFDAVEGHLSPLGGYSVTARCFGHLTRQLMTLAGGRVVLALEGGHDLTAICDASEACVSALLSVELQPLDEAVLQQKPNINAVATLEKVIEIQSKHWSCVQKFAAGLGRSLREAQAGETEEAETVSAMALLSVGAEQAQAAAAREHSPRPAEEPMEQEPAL

HDAC 7 = molecular target: T2, HDAC 7 (Homo sapiens, UniProt Q8WUI4); test: in vitro HDAC inhibition, HDAC isoform 7; settings: Class 2a, read-out: HDAC inhibition as IC50, HDAC Isoform 7
T2 sequence (Q8WUI4 1-952): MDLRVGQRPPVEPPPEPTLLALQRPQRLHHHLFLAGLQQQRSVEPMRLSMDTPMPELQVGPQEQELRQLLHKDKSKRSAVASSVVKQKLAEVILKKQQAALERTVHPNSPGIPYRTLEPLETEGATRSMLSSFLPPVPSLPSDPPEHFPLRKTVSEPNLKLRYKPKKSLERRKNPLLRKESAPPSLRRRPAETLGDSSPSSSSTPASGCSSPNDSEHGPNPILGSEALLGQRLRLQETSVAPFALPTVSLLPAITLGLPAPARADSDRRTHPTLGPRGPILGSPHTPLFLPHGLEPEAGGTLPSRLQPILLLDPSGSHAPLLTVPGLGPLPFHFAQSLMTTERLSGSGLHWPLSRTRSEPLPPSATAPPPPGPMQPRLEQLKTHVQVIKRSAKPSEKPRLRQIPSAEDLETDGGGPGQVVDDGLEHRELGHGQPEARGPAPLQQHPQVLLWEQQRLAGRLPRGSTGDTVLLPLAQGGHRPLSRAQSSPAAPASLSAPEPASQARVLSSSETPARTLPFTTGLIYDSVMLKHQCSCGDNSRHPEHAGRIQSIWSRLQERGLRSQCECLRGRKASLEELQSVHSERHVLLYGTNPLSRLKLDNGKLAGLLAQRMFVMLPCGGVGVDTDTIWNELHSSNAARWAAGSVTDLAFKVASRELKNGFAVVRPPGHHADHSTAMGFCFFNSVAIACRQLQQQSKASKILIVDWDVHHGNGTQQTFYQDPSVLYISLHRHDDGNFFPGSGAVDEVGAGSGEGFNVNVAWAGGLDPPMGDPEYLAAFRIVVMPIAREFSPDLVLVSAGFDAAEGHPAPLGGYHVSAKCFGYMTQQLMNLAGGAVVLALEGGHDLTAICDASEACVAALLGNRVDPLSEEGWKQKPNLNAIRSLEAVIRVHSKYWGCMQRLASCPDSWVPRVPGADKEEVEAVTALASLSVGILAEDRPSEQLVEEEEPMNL

HDAC 9 = HDAC 9 (Homo sapiens, UniProt Q9UKV0); test: in vitro HDAC inhibition, HDAC isoform 9; settings: Class 2a, read-out: HDAC inhibition as IC50, HDAC Isoform 9
HDAC 9, sequence (Q9UKV0 whole entry, canonical isoform): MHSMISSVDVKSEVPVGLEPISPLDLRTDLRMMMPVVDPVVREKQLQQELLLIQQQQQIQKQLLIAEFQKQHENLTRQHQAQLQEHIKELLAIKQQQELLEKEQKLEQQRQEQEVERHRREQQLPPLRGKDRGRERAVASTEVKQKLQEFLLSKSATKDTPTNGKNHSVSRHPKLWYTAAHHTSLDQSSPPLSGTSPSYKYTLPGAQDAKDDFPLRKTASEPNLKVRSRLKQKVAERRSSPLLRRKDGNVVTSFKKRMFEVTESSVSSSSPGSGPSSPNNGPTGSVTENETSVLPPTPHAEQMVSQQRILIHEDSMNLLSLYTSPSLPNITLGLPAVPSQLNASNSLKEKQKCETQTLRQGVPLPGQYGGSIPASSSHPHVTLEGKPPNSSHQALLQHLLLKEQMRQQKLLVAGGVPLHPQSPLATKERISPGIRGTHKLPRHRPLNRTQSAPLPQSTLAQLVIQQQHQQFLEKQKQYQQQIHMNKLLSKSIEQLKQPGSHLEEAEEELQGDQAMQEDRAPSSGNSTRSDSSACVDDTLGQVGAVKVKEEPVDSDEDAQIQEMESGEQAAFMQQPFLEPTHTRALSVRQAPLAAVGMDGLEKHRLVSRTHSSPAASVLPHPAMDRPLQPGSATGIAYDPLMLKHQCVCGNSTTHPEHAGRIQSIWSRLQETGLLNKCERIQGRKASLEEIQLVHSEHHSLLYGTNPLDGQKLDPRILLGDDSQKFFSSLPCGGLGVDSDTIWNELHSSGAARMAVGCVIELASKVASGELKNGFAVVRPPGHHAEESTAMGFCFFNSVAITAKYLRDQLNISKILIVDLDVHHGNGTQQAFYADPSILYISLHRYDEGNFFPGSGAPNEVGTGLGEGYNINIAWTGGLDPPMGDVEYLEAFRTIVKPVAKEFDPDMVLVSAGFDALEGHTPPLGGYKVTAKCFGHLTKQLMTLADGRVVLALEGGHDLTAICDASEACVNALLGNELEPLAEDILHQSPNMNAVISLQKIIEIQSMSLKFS

HDAC 6 = molecular target: T3, HDAC 6 (Homo sapiens, UniProt Q9UBN7); test: in vitro HDAC inhibition, HDAC isoform 6; settings: Class 2b, read-out: HDAC inhibition as IC50, HDAC Isoform 6
T3 sequence (Q9UBN7 1-1215): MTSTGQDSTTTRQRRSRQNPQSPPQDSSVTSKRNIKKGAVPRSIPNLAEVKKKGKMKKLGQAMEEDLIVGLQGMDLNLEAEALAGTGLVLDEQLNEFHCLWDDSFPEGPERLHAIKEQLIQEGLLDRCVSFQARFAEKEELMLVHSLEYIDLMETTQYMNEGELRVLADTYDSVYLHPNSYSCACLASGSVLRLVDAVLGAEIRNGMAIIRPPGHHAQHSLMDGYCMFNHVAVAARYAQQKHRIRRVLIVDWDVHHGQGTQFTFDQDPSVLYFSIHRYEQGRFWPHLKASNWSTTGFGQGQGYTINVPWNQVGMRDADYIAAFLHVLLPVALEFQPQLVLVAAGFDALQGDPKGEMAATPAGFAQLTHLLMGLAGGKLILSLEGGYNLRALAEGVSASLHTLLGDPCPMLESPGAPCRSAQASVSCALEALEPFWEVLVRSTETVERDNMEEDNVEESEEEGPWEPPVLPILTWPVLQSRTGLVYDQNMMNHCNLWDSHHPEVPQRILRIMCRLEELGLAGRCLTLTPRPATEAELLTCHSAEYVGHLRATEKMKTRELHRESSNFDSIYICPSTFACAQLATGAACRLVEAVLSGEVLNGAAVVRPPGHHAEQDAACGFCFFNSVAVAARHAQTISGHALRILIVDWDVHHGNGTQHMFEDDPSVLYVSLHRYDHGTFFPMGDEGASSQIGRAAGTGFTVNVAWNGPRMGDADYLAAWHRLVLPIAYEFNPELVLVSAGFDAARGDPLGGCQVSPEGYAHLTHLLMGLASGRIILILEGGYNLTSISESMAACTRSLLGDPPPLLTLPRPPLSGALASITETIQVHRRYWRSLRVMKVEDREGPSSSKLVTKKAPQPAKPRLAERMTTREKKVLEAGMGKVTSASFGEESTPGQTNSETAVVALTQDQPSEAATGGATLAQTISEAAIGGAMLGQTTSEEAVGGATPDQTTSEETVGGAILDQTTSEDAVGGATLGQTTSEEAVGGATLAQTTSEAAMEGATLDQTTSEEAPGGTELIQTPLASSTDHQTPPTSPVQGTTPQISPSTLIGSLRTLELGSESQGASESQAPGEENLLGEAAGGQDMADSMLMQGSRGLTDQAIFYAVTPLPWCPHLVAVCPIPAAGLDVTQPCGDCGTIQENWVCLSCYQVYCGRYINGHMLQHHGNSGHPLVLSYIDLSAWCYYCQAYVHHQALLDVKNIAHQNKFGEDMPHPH

HDAC 11 = molecular target: T4, HDAC 11 (Homo sapiens, UniProt Q96DB2); test: in vitro HDAC inhibition, HDAC isoform 11; settings: Class 4, in vitro; read-out: HDAC inhibition as IC50, HDAC Isoform 11
T4 sequence (Q96DB2 1-347): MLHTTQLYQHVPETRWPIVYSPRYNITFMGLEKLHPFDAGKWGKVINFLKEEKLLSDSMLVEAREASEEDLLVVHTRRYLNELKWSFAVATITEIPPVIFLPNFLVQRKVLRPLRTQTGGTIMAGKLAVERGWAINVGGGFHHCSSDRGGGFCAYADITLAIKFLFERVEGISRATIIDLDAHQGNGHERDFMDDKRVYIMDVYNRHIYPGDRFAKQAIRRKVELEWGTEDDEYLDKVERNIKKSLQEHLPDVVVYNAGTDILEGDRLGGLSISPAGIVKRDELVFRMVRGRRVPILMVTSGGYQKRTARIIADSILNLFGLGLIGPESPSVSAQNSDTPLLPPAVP

Measured: IC50

HDAC 1, sequence (Q13547 whole entry, canonical isoform): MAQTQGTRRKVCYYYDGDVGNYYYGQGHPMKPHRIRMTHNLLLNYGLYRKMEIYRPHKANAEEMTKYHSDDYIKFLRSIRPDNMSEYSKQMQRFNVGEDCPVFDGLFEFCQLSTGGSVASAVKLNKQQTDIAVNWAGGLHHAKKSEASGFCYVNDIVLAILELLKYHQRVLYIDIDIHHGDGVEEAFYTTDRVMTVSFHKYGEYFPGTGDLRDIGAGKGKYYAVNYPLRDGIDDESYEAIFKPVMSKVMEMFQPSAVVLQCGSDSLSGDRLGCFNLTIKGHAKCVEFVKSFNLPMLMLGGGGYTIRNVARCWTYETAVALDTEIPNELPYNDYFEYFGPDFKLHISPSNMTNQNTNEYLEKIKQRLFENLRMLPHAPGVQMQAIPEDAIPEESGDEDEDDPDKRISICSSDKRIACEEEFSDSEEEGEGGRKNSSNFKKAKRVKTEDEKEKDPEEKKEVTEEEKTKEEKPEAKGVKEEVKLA

CC(C)[C@@H]1NC(=O)[C@]2(C)CSC(=N2)c2csc(n2)CNC(=O)C[C@@H](/C=C/CCO)NC1=O
> 10 mM: all assays above
